Data reported in patent publication US20080214661A1, “Process To Obtain Dibenzylbutyrolactonic, Tetrahydrofuranic Lignans And Their Synthetic And Semi-Synthetic Derivatives, Their Analgesic And Anti-Inflammatory Activities, Topical And/Or Systemic Formulations Containing Said Lignans And Their Respective Therapeutic Method” (FUNDACADO DE AMPARO A PESQUISA DO ESTADO DE SAO PAULO, priority 2005, published 2008).

How the values were obtained:
Type in all cases: in vivo
[1] = tested on: rat foot edema induced by carrageenin; test: rat foot edema induced by carrageenin; conditions: oral administration; for inhibition as anti-inflammatory agent (rat foot edema): doses of 10, 20, 30 and 40 mg/kg, carrageenin 100 μg/foot, edema volume at third hour, dose for the value not stated
Procedure: Each bar represents the average ±SE (n=6) of the increase in edema volume (third hour) after the injection of carrageenin. Data were analyzed by one-way ANOVA and by Dunnett's multiple comparison variation test and the statistical significance was made for the level of p<0.05 (*) and p<0.01 (**).

digestive system = test: preliminary tests of side effects (gastric, biochemical, hematological)
[2] = tested on: writhing induced by 0.6% acetic acid solution in mice; test: writhing test induced by intraperitoneal injection of acetic acid; conditions: oral administration, doses of 10, 20, 30 and 40 mg/kg; 0.6% acetic acid i.p. in mice; number of writhing in 20 minutes; dose for the value not stated
Procedure: Each bar represents the average ±SE (n=6) of the number of writhing in 20 minutes for different doses. Data were analyzed by one-way ANOVA and by Dunnett's multiple comparison variation test and the statistical significance was made for the level of p<0.05 (*) and p<0,01 (**)

Molecule	inhibition as anti-inflammatory agent (rat foot edema) [1]	gastric effects (digestive system)	other biochemical and hematological disturbances (digestive system)	inhibition as analgesic agent (writhing test) [2]	efficacy as anti-inflammatory agent ([1]; 10-40 mg/kg, carrageenin-induced rat foot edema)
O=C1OC[C@@H](Cc2ccc3c(c2)OCO3)[C@@H]1Cc1ccc2c(c1)OCO2 [compound 6, (-)-hinokinin]	71%	not evident	non-occurrence	95%	–
(-)-6,6′-dinitroinokinin [compound 7]	62%	–	–	75%	–
Nc1cc2c(cc1CC1COC(=O)C1Cc1cc3c(cc1N)OCO3)OCO2 (single isomer, unassigned; (-)) [compound 8, (-)-6,6′-diaminohinokinin]	82%	not evident	non-occurrence	92%	–
COc1ccc2c(c1)c(CC(=O)O)c(C)n2C(=O)c1ccc(Cl)cc1 [indomethacin, reference compound]	–	gastric effects as observed	–	–	–
c1ccc(COC2OC[C@@H](Cc3ccc4c(c3)OCO4)[C@@H]2Cc2ccc3c(c2)OCO3)cc1 (stereo partly drawn) [compound 5, (-)—O-benzyl cubebin]	–	–	–	89%	not efficient as an anti-inflammatory agent
